# Results from patent US11903958B2, “Therapeutic agents and methods of producing same” (GLYCOSYNNOVATIONS PTY LTD, priority 2016, dated 2024).
# Legend:
# recombinant human IL-13 = recombinant human IL-13 (Homo sapiens, UniProt P35225); assay: TF-1 cell proliferation bioassay with rhIL-13; format: cell-based; conditions: rhIL-13 4 ng/ml; inhibitor 10 μg/ml and 2.5 μg/ml; 48 hours; FIG. 1
# Description: The various simplified sulphated glycoconjugates inhibited the proliferation of an IL-13 responsive cell line to differing degrees. This occurs at very low doses and is believed not to be due to a toxic effect of the glycoconjugates because other, similarly sulfated polysaccharides (e.g. sucrose octasulfate), at the same concentrations of IL-13 and polysaccharide have no effect. These experiments utilize the TF-1 cells that are grown in 2 ng/ml recombinant human (rh) GM-CSF. TF-1 cells were originally established from a bone marrow sample from a person with severe pancytopenia. These cells are dependent on IL-3 or GM-CSF for long term growth and are responsive to a variety of human cytokines including IL-13.
# (§1) Briefly, proliferation assays were carried out in 96-well microplates suitable for such assays. […] When the effect of the different simplified sulfated glycoconjugates was measured, the wells also contained various concentrations of these molecules (10 μg/ml and 2.5 μg/ml) and the rhIL-13 concentration was held constant at 4 ng/ml. The cells proliferated for 48 hours, after which the number of cells present was quantified by staining with 20 μL per well of the CellTiter 96 Aqueous One reagent was incubated with TF1 cells for the last 3.5 to 4 hours of culture and then absorbance was read at 490 nm on an Enspire Multimode plate reader (PerkinElmer).
# recombinant human IL-4 = biological target: T1, recombinant human IL-4 (Homo sapiens, UniProt P05112); assay: TF-1 cell proliferation bioassay with rhIL-4; format: cell-based; conditions: rhIL-4 4 ng/ml; inhibitor 10 μg/ml and 2.5 μg/ml; 48 hours; FIG. 3
# T1 sequence (P05112 25-153): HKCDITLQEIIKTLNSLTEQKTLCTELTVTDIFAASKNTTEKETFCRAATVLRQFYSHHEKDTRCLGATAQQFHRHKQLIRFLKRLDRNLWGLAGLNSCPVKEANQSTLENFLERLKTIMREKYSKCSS
# Description: The various simplified sulphated glyconjugates inhibited the proliferation of an IL-4 responsive cell line to differing degrees. This occurs at very low doses and is not due to a toxic effect of the glycoconjugate because other, similarly sulfated polysaccharides (sucrose octasulfate), at the same concentrations of IL-4 and polysaccharide have no effect. These experiments utilize the TF-1 cells that are grown in 2 ng/ml recombinant human (rh) GM-CSF. TF-1 cells were originally established from a bone marrow sample from a person with severe pancytopenia. These cells are dependent on IL-3 or GM-CSF for long term growth and are responsive to a variety of human cytokines including human IL-4.
# as §1, with “rhIL-4” for “rhIL-13”
# Sequence of recombinant human IL-13 (P35225 25-146): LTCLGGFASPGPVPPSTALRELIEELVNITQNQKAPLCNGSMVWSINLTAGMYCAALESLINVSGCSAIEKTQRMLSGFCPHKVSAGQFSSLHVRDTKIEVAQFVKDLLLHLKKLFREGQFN
structure (smiles),measurement,setting,value
O=S(=O)(O)OC[C@H]1O[C@@](COS(=O)(=O)O)(O[C@H]2O[C@H](COS(=O)(=O)O)[C@@H](OS(=O)(=O)O)[C@H](OS(=O)(=O)O)[C@H]2OS(=O)(=O)O)[C@@H](OS(=O)(=O)O)[C@@H]1OS(=O)(=O)O [sucrose octasulfate],inhibition of IL-13 stimulated TF-1 cell proliferation,recombinant human IL-13,no effect
same,inhibition of IL-4 stimulated TF-1 cell proliferation,recombinant human IL-4,no effect
